Experimental data as given in patent EP2067861A1, “Animals of the rattus genus wherein msh6 expression is functionally decreased and methods for the generation of specific mutants therefrom” (Koninklijke Nederlandse Akademie van Wetenschappen, priority 2007, dated 2009).

System: wild-type males
Assay: Survival of ENU treated wild-type males (previous studies)
Format: in vivo, rat
Settings: unpublished data
Description: The efficiency of ENU is dependent of the dose, reflected by a higher mutagenicity after three weekly administrations of low doses of the mutagen compared to a single high-dose injection (Justice et al. (2000) Mamm Genome 11, 484-8). Furthermore it has been shown that higher ENU concentrations increase the mutation frequency (Smits et al. (2004) Pharmacogenet Genomics 16, 159-69; Smits and Cuppen (2006) Trends Genet. 22, 232-40). To determine the optimal ENU concentration we performed an ENU dose-response experiment and determined the fertility of the founders. At 12 weeks of age msh6^-/- males were treated with 3 weekly doses of different concentrations of the mutagen. Fertility was determined after a full cycle of spermatogenesis (± 10 weeks) by breeding and/or histological analysis of the testes. At concentrations of 35, 30 and 25 mg/kg, respectively 1/8, 5/8 and 4/6 males were fertile (Table 5). Compared to earlier studies, where at 40 and 35 mg/kg ENU respectively 6/10 and 10/10 rats are fertile (Smits and Cuppen (2006) Trends Genet. 22, 232-40), this is a considerable decrease. It is known that MSH6 deficiency reduces lifespan in both rats (van Boxtel et al. (2007) submitted) and mice (Edelmann (1997) Cell 91, 467-77) as a result of tumor development. MSH6 deficiency increased ENU sensitivity not only in fertility, but also in survival. […]

## CCN(N=O)C(N)=O [ENU, N-ethyl-N-nitrosourea]
35 mg/kg bodyweight ENU
  survived till 1,5 years of age: 9 out of 10
40 mg/kg bodyweight ENU
  survived till 1,5 years of age: 10 out of 10
